Assays:
[1] = Cytotoxic activity (MTT) against normal periodontal ligament fibroblast HPLF; type: cell-based; conditions: human, HPLF normal periodontal ligament fibroblasts, HPLF normal oral cells, 48 h incubation
Procedure: (§1) Human normal oral mesenchymal cells, gingival fibroblast (HGF), and periodontal ligament fibroblast (HPLF) established from the first premolar tooth extracted from the lower jaw of a child[47] and human OSCC cell line HSC-2 (derived from tongue), purchased from Riken Cell Bank (Tsukuba, Japan), were cultured at 37 °C in DMEM supplemented with 10% heat-inactivated FBS, 100 units/ml penicillin G, and 100 µg/ml streptomycin sulphate under a humidified 5% CO2 atmosphere. HGF and HPLF cells at 10–18 population doubling levels were used in this study.
(§2) Cells were inoculated at 2.5 × 10^3 cells/0.1 ml in a 96-microwell plate (Becton Dickinson Labware, Franklin Lakes, NJ). After 48 h, the medium was replaced with 0.1 ml of fresh medium containing different concentrations of single test compounds. Cells were incubated further for 48 h and the relative viable cell number was then determined by the MTT method[22]^,[48–54]. All benzoxazolone derivatives were dissolved with DMSO at the concentration of 40 mM and stored until use. Control cells were treated with the same amounts of DMSO ([…], 0.03125, 0.0625, 0.125, 0.25, 0.5, and 1.0%) and the cell damage induced by DMSO was subtracted from that induced by test agents. In brief, cells were stained with MTT reagent, dissolved with DMSO, and the absorbance of the MTT-stained cell lysate was measured at 560 nm, using a microplate reader (Infinite F 50R, TECAN, Kawasaki, Japan). […]

[2] = target: hCA I (Homo sapiens, UniProt P00915); assay: Carbonic anhydrase inhibition, hCA I; type: biochemical; conditions: for Ki: Lineweaver–Burk, three concentrations
Procedure: (§3) The purification of cytosolic CA isoenzymes (CA I and CA II) was previously described with a simple one-step method by a Sepharose-4B-L tyrosine-sulphanilamide affinity chromatography[42]^,[53]^,[55–58]. The protein quantity in the column effluents was determined spectrophotometrically at 280 nm. Sodium dodecyl sulphate-polyacrylamide gel electrophoresis (SDS-PAGE) was applied with a Bio-Rad Mini Gel system Mini-PROTEIN system (Bio-Rad Laboratories, Inc., Shanghai, China) after purification of both CA isoenzymes. Briefly, it was performed in acrylamide for the running (10%) and the stacking gel (3%) contained SDS (0.1%), respectively. […] Bovine serum albumin was used as a standard protein. The IC50 values were obtained from activity (%) versus compounds plots. For the calculation of Ki values, three different concentrations were used. The Lineweaver–Burk curves were drawn and calculations were realised as before.

[3] = Cytotoxic activity (MTT) against normal gingival fibroblast HGF; type: cell-based; conditions: human, HGF normal gingival fibroblasts, HGF normal oral cells, 48 h incubation
Procedure: as §1, §2

[4] = system: HSC-2; assay: Cytotoxic activity (MTT) against OSCC cell line HSC-2; type: cell-based, human; conditions: for CC50: Homo sapiens, HSC-2, 48 h incubation, MTT, triplicate; for PSE (B/A2)×100: potency-selectivity expression = mean CC50 normal cells / (CC50 HSC-2)^2 × 100; for TS (B/A): tumour specificity = mean CC50 normal cells (HGF, HPLF) / CC50 HSC-2; for increase in cytotoxicity compared to non-substituted compound 1: HSC-2 CC50 ratio versus compound 1; for increase in TS (selectivity) compared to compound 1: TS ratio versus compound 1
Procedure: as §1, §2
(§4) Tumour specificity (TS) was calculated using the following equation: TS = Mean CC50 against three normal oral cell types (HGF, HPLF)/Mean CC50 against four OSCC cell lines (HSC-2). Since HGF cells were derived from gingival tissue, the relative sensitivity of these cells was also compared (as mean CC50 against HGF/mean CC50 against HSC-2).

[5] = target: hCA II (Homo sapiens, UniProt P00918); assay: Carbonic anhydrase inhibition, hCA II; type: biochemical; conditions: for Ki: Lineweaver–Burk, three concentrations
Procedure: as §3

[6] = Cytotoxic activity (MTT), mean over human normal oral cells; type: cell-based; conditions: HGF and HPLF normal oral fibroblasts (mean of both), read-out: CC50 Human normal oral cells Mean (B)
Procedure: as §1, §2, §4

Sequence of hCA I (P00915 whole entry): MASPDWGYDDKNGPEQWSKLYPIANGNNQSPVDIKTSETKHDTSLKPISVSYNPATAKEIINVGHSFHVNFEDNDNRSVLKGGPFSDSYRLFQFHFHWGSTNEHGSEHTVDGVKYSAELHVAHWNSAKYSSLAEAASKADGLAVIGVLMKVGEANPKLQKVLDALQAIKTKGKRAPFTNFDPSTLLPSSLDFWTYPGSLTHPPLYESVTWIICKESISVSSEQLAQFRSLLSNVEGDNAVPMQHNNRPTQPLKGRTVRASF

| Compound | melting point | CC50 at 48 h [1] | IC50 [2] | Ki [2] | CC50 at 48 h [3] | CC50 [4] | PSE (B/A2)×100 [4] | TS (B/A) [4] | IC50 [5] | Ki [5] | CC50 at 48 h [6] | times more cytotoxic than 5-FU ([4]; HSC-2 CC50 ratio versus 5-FU) | times low cytotoxic than DXR ([4]; HSC-2 CC50 ratio versus DXR) | increase in cytotoxicity compared to non-substituted compound 1 [4] | PSE value higher than 5-FU ([4]; PSE ratio versus 5-FU) | PSE value compared to compound 1 ([4]; PSE ratio versus compound 1) | increase in TS (selectivity) compared to compound 1 [4] | cytotoxicity reduced compared to compound 1 ([4]; HSC-2 CC50 ratio versus compound 1, decrease) |
| --- | --- | --- | --- | --- | --- | --- | --- | --- | --- | --- | --- | --- | --- | --- | --- | --- | --- | --- |
| O=C(C=Cc1ccccc1)c1ccc2[nH]c(=O)oc2c1 [Compound 1, 6-(3-Phenyl-2-propenoyl)-3H-benzoxazol-2-one] | 230 to 232 °C | 83.3 µM | 58.7 µM | 70.6 ± 6.67 µM | 71 µM | 22.1 µM | 16 | 3.5 | 40.5 µM | 36.2 ± 13.3 µM | 77.2 µM | – | – | – | – | – | – | – |
| O=C(C=Cc1ccc(C(F)(F)F)cc1)c1ccc2[nH]c(=O)oc2c1 [Compound 4, 6-[3-(4-Trifluoromethylphenyl)-2-propenoyl]-3H-benzoxazol-2-one] | – | 26.3 µM | 29.7 µM | 30.8 ± 3.49 µM | 24.7 µM | 4 µM | 159 | 6.4 | 45 µM | 19.2 ± 2.19 µM | 25.5 µM | 9.4 times | 8 times | 5.5 times | about 2 times | 9.9 times | 1.8 times | – |
| COc1ccc(C=CC(=O)c2ccc3[nH]c(=O)oc3c2)cc1 [Compound 3, 6-[3-(4-Methoxyphenyl)-2-propenoyl]-3H-benzoxazol-2-one] | 210 to 213 °C | 84 µM | 47.5 µM | 30.5 ± 11.3 µM | 88.3 µM | 14.5 µM | 41 | 5.9 | 48.1 µM | 36.2 ± 10.3 µM | 86.2 µM | – | – | 1.5 times | – | – | – | – |
| COc1cccc2c1C(=O)c1c(O)c3c(c(O)c1C2=O)C[C@@](O)(C(=O)CO)C[C@@H]3O[C@H]1C[C@H](N)[C@H](O)[C@H](C)O1 [DXR, Doxorubicin, reference compound] | – | > 10 µM | – | – | 0.7 µM | 0.5 µM | >2030 | – | – | – | > 5.3 µM | – | – | – | – | – | – | – |
| O=C(C=Cc1cccc(O)c1)c1ccc2[nH]c(=O)oc2c1 [Compound 5, 6-[3-(3-Hydroxyphenyl)-2-propenoyl]-3H-benzoxazol-2-one] | 277 to 279 °C | 50.3 µM | 69.6 µM | 63 ± 15.4 µM | 55.4 µM | 6.9 µM | 111 | 7.7 | 48.5 µM | 35.2 ± 8.36 µM | 52.9 µM | – | – | – | – | – | – | – |
| O=C(C=Cc1ccc(OCc2ccccc2)cc1)c1ccc2[nH]c(=O)oc2c1 [Compound 8, 6-[3-(4-Benzyloxyphenyl)-2-propenoyl]-3H-benzoxazol-2-one] | 243 to 245 °C | 32.7 µM | 57.7 µM | 28.4 ± 6.63 µM | 98 µM | 11.9 µM | 46 | 5.5 | 18.1 µM | 38 ± 2.36 µM | 65.3 µM | – | – | 1.9 times | – | – | – | – |
| Cc1ccc(C=CC(=O)c2ccc3[nH]c(=O)oc3c2)cc1 [Compound 2, 6-[3-(4-Metyhlphenyl)-2-propenoyl]-3H-benzoxazol-2-one] | 258 to 260 °C | 105 µM | 33 µM | 38.8 ± 1.93 µM | 87.7 µM | 10.1 µM | 94 | 9.5 | 45.6 µM | 32.1 ± 6.6 µM | 96.5 µM | – | – | 2.2 times | – | – | 2.7 times | – |
| CC(C)c1ccc(C=CC(=O)c2ccc3[nH]c(=O)oc3c2)cc1 [Compound 6, 6-[3-(4-Isopropylphenyl)-2-propenoyl]-3H-benzoxazol-2-one] | 220 to 222 °C | 76 µM | 52.1 µM | 37.1 ± 7.77 µM | 53 µM | 10.1 µM | 64 | 6.4 | 30.1 µM | 33.3 ± 6.15 µM | 64.5 µM | – | – | 2.2 times | – | – | 1.8 times | – |
| O=c1[nH]cc(F)c(=O)[nH]1 [Compound 5-FU, 5-Fluorouracil, reference compound] | – | > 1000 µM | – | – | > 1000 µM | 37.7 µM | 80.7 | – | – | – | > 1000 µM | – | – | – | – | – | – | – |
| CN(C)c1ccc(C=CC(=O)c2ccc3[nH]c(=O)oc3c2)cc1 [Compound 7, 6-[3-(4-Dimethylaminophenyl)-2-propenoyl]-3H-benzoxazol-2-one] | 248 to 250 °C | 70 µM | 40.3 µM | 52.3 ± 9.97 µM | 76.3 µM | 30.2 µM | 8 | 2.4 | 29.7 µM | 10.8 ± 2.14 µM | 73.2 µM | – | – | – | – | – | – | 1.4 times |

Reference: paper PMC6781194, “Synthesis, cytotoxicities, and carbonic anhydrase inhibition potential of 6-(3-aryl-2-propenoyl)-2(3H)-benzoxazolones” (Journal of Enzyme Inhibition and Medicinal Chemistry, 2019)
